Experimental data from ChEMBL document CHEMBL1135315, “Spirocyclic NK(1) antagonists I: [4.5] and [5.5]-spiroketals” (Bioorg Med Chem Lett, 2002).

System: Gerbillinae
Assay: CNS penetration was assessed by compounds ability in gerbils to block the foot-tapping induced by central infusion of the NK1-selective agonist GR-73632 when administered intravenously
Assay type: functional
Details: iv, read-out: ID50 (the source's name)

Compound	ED50 [mg/kg]
CN(C)Cc1nn[nH]c1CN1CCOC2(CCC(c3ccccc3C(F)(F)F)CO2)C1c1ccc(F)cc1 (stereo not drawn)	1.1
CN(C)Cc1nn[nH]c1CN1CCOC2(CCC(c3ccccc3OC(F)(F)F)CO2)C1c1ccc(F)cc1 (stereo not drawn)	0.6

Target: T1, Substance-P receptor (Homo sapiens, UniProt P25103)
Assay: Displacement of [125I]-labeled substance P from human Tachykinin receptor 1 expressed in CHO cells
Assay type: cell-based
Details: not given

T1 sequence (P25103 whole entry): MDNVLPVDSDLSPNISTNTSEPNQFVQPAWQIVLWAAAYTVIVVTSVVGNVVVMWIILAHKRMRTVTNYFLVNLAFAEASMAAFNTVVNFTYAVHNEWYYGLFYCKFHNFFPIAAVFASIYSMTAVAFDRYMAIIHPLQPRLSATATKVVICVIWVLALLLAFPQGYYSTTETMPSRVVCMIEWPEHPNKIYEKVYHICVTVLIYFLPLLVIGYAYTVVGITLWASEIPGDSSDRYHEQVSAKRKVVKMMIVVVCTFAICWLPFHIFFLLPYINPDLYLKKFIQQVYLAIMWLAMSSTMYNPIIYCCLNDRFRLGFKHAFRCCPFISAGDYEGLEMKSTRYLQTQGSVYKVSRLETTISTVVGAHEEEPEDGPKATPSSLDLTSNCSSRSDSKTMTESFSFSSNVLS

Compound	IC50 [nM]
COc1ccccc1[C@H]1COCC2(C1)OCCN[C@H]2c1ccc(F)cc1 (stereo partly drawn)	13
O=c1[nH]nc(CN2CCOC3(CCC(c4ccccc4)CO3)C2c2ccccc2)[nH]1 (stereo not drawn)	19
CN(C)Cc1nn[nH]c1CN1CCOC2(CCC(c3ccccc3C(F)(F)F)CO2)C1c1ccc(F)cc1 (stereo not drawn)	1.1
Fc1ccc(C2NCCOC23CCC(c2cccc(C(F)(F)F)c2)CO3)cc1 (stereo not drawn)	513
COc1ccccc1[C@H]1COCC2(C1)OCCN(Cc1n[nH]c(O)n1)[C@H]2c1ccc(F)cc1 (stereo partly drawn)	0.56
COc1ccc(F)cc1[C@H]1COCC2(C1)OCCN[C@H]2c1ccc(F)cc1 (stereo partly drawn)	10
c1ccc(C2CCC3(OCCNC3c3ccccc3)OC2)cc1 (stereo not drawn)	170
Fc1ccc([C@@H]2NCCOC23COC[C@H](c2cccc(C(F)(F)F)c2)C3)cc1 (stereo partly drawn)	30
CN(C)Cc1nn[nH]c1CN1CCOC2(CCC(c3ccccc3OC(F)(F)F)CO2)C1c1ccc(F)cc1 (stereo not drawn)	1.4
Fc1ccc([C@@H]2NCCOC23COC[C@H](c2ccccc2C(F)(F)F)C3)cc1 (stereo partly drawn)	24
COc1ccc(-n2nnnc2C(F)(F)F)cc1[C@H]1COCC2(C1)OCCN(Cc1n[nH]c(O)n1)[C@H]2c1ccc(F)cc1 (stereo partly drawn)	0.1
Fc1ccc([C@@H]2NCCOC23COC[C@H](c2ccccc2)C3)cc1 (stereo partly drawn)	99
COc1ccc(C(C)C)cc1[C@H]1COCC2(C1)OCCN[C@H]2c1ccc(F)cc1 (stereo partly drawn)	2.8
COc1cccc([C@H]2COCC3(C2)OCCN[C@H]3c2ccc(F)cc2)c1 (stereo partly drawn)	183
COc1ccc(OC)c([C@H]2COCC3(C2)OCCN[C@H]3c2ccc(F)cc2)c1 (stereo partly drawn)	16

Target: T1, Substance-P receptor
Assay: Percent displacement of [125I]-labeled substance P from the cloned human Tachykinin receptor 1 expressed in CHO cells at 1 uM
Assay type: cell-based
Details: not given

Compound	Affinity [%]
Fc1ccc([C@@H]2NCCO[C@@]23CC[C@H](c2ccccc2C(F)(F)F)CO3)cc1	44
Fc1ccc([C@@H]2NCCO[C@]23CC[C@@H](c2ccccc2C(F)(F)F)CO3)cc1	47

Target: T1, Substance-P receptor
Assay: Percent displacement of [125I]-labeled substance P from the cloned human Tachykinin receptor 1 expressed in CHO cells at a concentration of 1 uM of the compound
Assay type: cell-based
Details: not given

Compound	Affinity [%]
COc1ccc([C@H]2COCC3(C2)OCCN[C@H]3c2ccc(F)cc2)cc1 (stereo partly drawn)	27
Fc1ccc(C2NCCOC23CCC(c2ccc(C(F)(F)F)cc2)CO3)cc1 (stereo not drawn)	55

Target: T1, Substance-P receptor
Assay: Displacement of [125I]-substance P from human Tachykinin receptor 1
Details: not given

Compound	IC50 [nM]
Fc1ccc([C@@H]2NCCO[C@@]23CC[C@@H](c2ccccc2C(F)(F)F)CO3)cc1	28
Fc1ccc([C@@H]2NCCO[C@]23CC[C@H](c2ccccc2C(F)(F)F)CO3)cc1	400
